Source: patent publication US5008283A (Pfizer Inc., priority 1990, dated 1991)

Experiments:
collagenase [1] = experiment: Inhibition of release of activated collagenase by IgG-stimulated neutrophils; type: cell-based, human; details: for inhibitory effect on the release of activated collagenase (in words): at supraphysiological concentrations for those compounds; for Inhibition of Activated Neutrophil Collagenase Release, % Inhibition: human neutrophils on IgG coated wells; for inhibitory effect on the release of activated collagenase by neutrophils (in words): as shown in Table I
Text: (§1) Whole human blood from normal volunteers was obtained by venipuncture into heparinized syringes. The majority of the red cells were removed by dextran sedimentation and neutrophils were separated by density centrifugation over hypaque ficoll. The neutrophil rich fraction was washed and residual red cells were removed by hypotonic lysis according to the procedure described by Blackburn, W.D. et al., Arthritis Rheum. 30:1006-1014 (1987). The neutrophils so prepared were used in the assays described below and cell viability was assured by determining their ability to exclude typan blue. In each assay the cell viability routinely exceeded 95%.
To assay for inhibition of release of activated collagenase by neutrophils,the following assay was performed. Neutrophil cell suspensions were incubated at 37° C. for 15-30 minutes in the presence of varying concentrations of tenidap or other compound under study. Tenidap was dissolved and diluted in water and added to the cells directly therefrom. Other compounds tested were initially dissolved in 0.1M NaOH and then diluted in water prior to addition to the cells. After the cells had been incubated in the presence of tenidap or other compound under study, the cell suspensions (5 × 10^6 cells/ml, 125 μl/well) were added to IgG coated and bovine serum albumin (BSA) blocked wells of microtiter plates and incubated for 45 minutes at 37° C. As controls, similar incubations were performed in the absence of IgG. Following incubation, the cell suspensions were centrifuged (750 × g) for 5 minutes at 4° C. The supernatants were removed and DFP (diisopropylfluorophosphate) was added to a final concentration of 10^-3 M to inactivate serine proteases.
Then, the collagenase activity in the DFP treated supernatants was determined by incubating, in triplicate, 200 μl aliquots of supernatant with ^3 H-labeled reconstituted type-I collagen fibrils in 7 mm flat bottom tissue culture wells (Linbro®, Cat #76-032-05, Flow Laboratories McLean, Va) as described by Johnson-Wint, B., Anal. Biochem. 104:175-181 (1980). The reconstituted fibrils in each well contained 75 μg of a mixture of ^3 H-labeled and unlabeled collagen with an activity of 7,000 cpm. To determine the total radioactivity potentially released from the fibrils in each experiment, the reconstituted fibrils were also incubated with a mixture of clostridial collagenase (250 mg/ml HBSS (Hank's balanced salt solution, GIBCO, Grand Island, N.Y.)). To maximize sensitivity and specificity of the assay, incubations were performed for eighteen hours in triplicate at 37° C. At the end of the incubation period, the supernatants were aspirated from each well and the radioactivity was determined by counting in a liquid scintillation counter. Greater than 99% of the radioactivity applied to each well was recovered from wells incubated with bacterial collagenase. Average counts per minute released by fibrils incubated with buffer (HBSS) alone were subtracted from the cpm measured in each supernatant. The resulting triplicate values for each supernatant were averaged and divided by the average cpm released by the bacterial collagenase to determine the percent fibril lysis produced by each supernatant. The total activated collagen released during the eighteen hour incubation was then calculated and divided by the incubation time to yield values for the collagenase activity (ng collagen degraded/min) in each supernatant.

collagenase [2] = experiment: Total collagenase released by IgG-stimulated neutrophils (supernatants activated with mersalyl); type: cell-based, human; details: supernatants activated with organic mercurial, tenidap concentration not given
Text: as §1
In parallel experiments, release of total collagenase into the supernatants was determined by activating latent collagenase in the supernatants with 1.0 mM mersalyl (Harris, E.D. and Vater, C.A., Methodology of collagenase research: substrate purification, enzyme activation and purification. Collagenase in Normal Pathological Connective Tissues. Edited by D. E. Woolley, J. M. Evanson, Chichester, John Wiley & Sons, 1980) prior to addition of the supernatants to the radiolabeled collagen fibrils. […]

myeloperoxidase = experiment: Myeloperoxidase activity assay (ABTS/hydrogen peroxide, absorbance at 412 nm); type: biochemical; details: myeloperoxidase extracted from human neutrophils; varying concentrations of tenidap; figures not given
Text: as §1
Neutrophils (1.25 × 10^6 /ml, prepared as described above) were incubated for 60 minutes at 37° C. in either BSA or IgG coated tissue culture wells which had been blocked with BSA. Following incubation, the wells were aspirated and the cells were removed by centrifugation. […] Myeloperoxidase activity was then determined by adding 20 μl of the supernatant to 300 μl of 0.2M sodium acetate buffer, pH 4.5, containing 17 mg of 2,2'-azino-di-(3-ethylbenzthiazoline)sulfonic acid and 600 μl of 0.003% hydrogen peroxide. The activity of myeloperoxidase in the supernatant was then determined by the change in absorbance at 412 nm using a spectrophotometer as described by Shindler, J.S. et al., Eur. J. Biochem. 65:325-331 (1976).

COc1ccc2c(c1)c(CC(=O)O)c(C)n2C(=O)c1ccc(Cl)cc1 [Indomethacin]
inhibitory effect on the release of activated collagenase (in words) (collagenase [1]): some inhibitory effect | Inhibition of Activated Neutrophil Collagenase Release, % Inhibition (collagenase [1]; peak concentration 2.5 μM): 14%

NC(=O)N1C(=O)C(C(=O)c2cccs2)c2cc(Cl)ccc21 (stereo not drawn) [Tenidap, 5-chloro-2,3-dihydro-2-oxo-3-(2-thienylcarbonyl)-indole-1-carboxamide]
inhibition of the release of activated collagenase from neutrophils (in words) (collagenase [1]; at clinically relevant concentrations): significantly inhibited | Inhibition of Activated Neutrophil Collagenase Release, % Inhibition (collagenase [1]; peak concentration 87.5 μM): 64% | inhibition of the total amount of collagenase released by neutrophils (collagenase [2]): 22% | inhibition of the activity of myeloperoxidase (in words) (myeloperoxidase): inhibit the activity of myeloperoxidase

CN1C(C(=O)Nc2ccccn2)=C(O)c2ccccc2S1(=O)=O [Piroxicam]
inhibitory effect on the release of activated collagenase (in words) (collagenase [1]): some inhibitory effect | Inhibition of Activated Neutrophil Collagenase Release, % Inhibition (collagenase [1]; peak concentration 25 μM): 18%

COc1ccc2cc([C@H](C)C(=O)O)ccc2c1 [Naproxen]
inhibitory effect on the release of activated collagenase by neutrophils (in words) (collagenase [1]): no inhibitory effect | Inhibition of Activated Neutrophil Collagenase Release, % Inhibition (collagenase [1]; peak concentration 80 μM): 0%

CC(C)Cc1ccc(C(C)C(=O)O)cc1 (stereo not drawn) [Ibuprofen]
inhibitory effect on the release of activated collagenase by neutrophils (in words) (collagenase [1]): no inhibitory effect | Inhibition of Activated Neutrophil Collagenase Release, % Inhibition (collagenase [1]; peak concentration 175 μM): 0%
